Experimental findings from patent US8980830B2 (priority 2007, dated 2015) are described below.

For data set [1] the following is noted: pH 7.
Data set [2] in a line: Glucagon solubility assay. The note with it: Table 10.
The target in data set [3] is T1, Glucagon Receptor (Homo sapiens, UniProt P47871). Put plainly: Functional assay, cAMP induction (luciferase reporter, HEK293) at glucagon receptor. Type of data set: cell-based. Also on record: expressed in transfected cells; host or cells: HEK293. (Reporter assays use an easily measured gene product as a stand-in for the process of interest.)
T1 sequence (P47871 26-477): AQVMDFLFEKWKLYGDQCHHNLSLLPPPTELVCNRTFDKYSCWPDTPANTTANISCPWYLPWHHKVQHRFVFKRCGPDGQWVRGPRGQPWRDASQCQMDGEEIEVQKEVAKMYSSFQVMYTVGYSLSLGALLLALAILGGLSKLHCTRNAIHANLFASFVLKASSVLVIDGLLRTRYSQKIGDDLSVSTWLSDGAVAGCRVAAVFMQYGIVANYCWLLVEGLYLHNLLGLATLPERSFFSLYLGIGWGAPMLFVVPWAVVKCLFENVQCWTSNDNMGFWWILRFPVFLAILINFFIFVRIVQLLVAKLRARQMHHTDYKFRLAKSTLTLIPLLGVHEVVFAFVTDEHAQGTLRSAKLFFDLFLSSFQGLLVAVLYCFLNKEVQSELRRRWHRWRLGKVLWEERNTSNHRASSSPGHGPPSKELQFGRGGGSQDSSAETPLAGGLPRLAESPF
Data set [4] addresses T1, Glucagon Receptor. Put plainly: cAMP inhibition: antagonism of glucagon-induced cAMP at glucagon receptor. Type of data set: cell-based. Also on record: expressed in transfected cells; host or cells: HEK293.
For another data set, the target named is GLP-1 Receptor (Homo sapiens, UniProt P43220). Put plainly: Functional assay, cAMP induction (luciferase reporter, HEK293) at GLP-1 receptor. The class given is cell-based.
GLP-1 Receptor, sequence (P43220 24-463): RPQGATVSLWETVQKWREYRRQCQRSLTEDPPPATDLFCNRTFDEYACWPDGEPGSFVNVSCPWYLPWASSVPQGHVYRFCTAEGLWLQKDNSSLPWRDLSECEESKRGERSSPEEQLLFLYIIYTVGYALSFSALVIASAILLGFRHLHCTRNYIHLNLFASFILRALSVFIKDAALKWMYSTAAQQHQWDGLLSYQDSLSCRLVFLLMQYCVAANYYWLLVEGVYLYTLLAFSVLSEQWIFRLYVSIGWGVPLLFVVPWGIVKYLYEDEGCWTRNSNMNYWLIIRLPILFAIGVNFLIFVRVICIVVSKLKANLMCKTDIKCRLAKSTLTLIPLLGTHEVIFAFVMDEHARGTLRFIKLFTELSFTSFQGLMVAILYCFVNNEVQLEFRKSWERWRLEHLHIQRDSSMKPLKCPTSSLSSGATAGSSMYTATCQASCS
For data set [5], the target named is T1, Glucagon Receptor. Put plainly: Glucagon receptor binding assay (scintillation proximity competition binding). The conditions noted are these: read-out: IC50 (nM) (Receptor binding); Table 11; ND: not detected.

Square brackets hold non-standard residues; d marks the D form. Ends that are not written are not given here. Peptide text beside a SMILES is read from it. PhLac = O=C(O)[C@@H](O)Cc1ccccc1

Consider “Glucagon Cys^17 Mal-PEG-5K [Glucagon, Cys17PEG5K]”, for which the “Percent Soluble” value in data set [1] was found to be 94%.

In the case of `CSCC[C@H](NC(=O)[C@H](CC(C)C)NC(=O)[C@H](Cc1c[nH]c2ccccc12)NC(=O)[C@H](CCC(N)=O)NC(=O)[C@@H](NC(=O)[C@H](Cc1ccccc1)NC(=O)[C@H](CC(=O)O)NC(=O)[C@H](CCC(N)=O)NC(=O)[C@H](C)NC(=O)[C@H](CCCNC(=N)N)NC(=O)[C@H](CCCNC(=N)N)NC(=O)[C@H](CO)NC(=O)[C@H](CC(=O)O)NC(=O)[C@H](CC(C)C)NC(=O)[C@H](Cc1ccc(O)cc1)NC(=O)[C@H](CCCCN)NC(=O)[C@H](CO)NC(=O)[C@H](Cc1ccc(O)cc1)NC(=O)[C@H](CC(=O)O)NC(=O)[C@H](CO)NC(=O)[C@@H](NC(=O)[C@@H](O)Cc1ccccc1)[C@@H](C)O)C(C)C)C(=O)N[C@@H](CC(N)=O)C(=O)N[C@H](C(N)=O)[C@@H](C)O` [[PLA^6, D^9]Glucagon(aa6-29)-NH2] (H-[PhLac]TSDYSKYLDSRRAQDFVQWLMNT-NH2), the “Solubility (%, pH 6-8)” value in data set [2] amounted to 11%.

“HSQGTFTSDYARYLDARRAREFIKWLVRGRG-NH2 [ANK2 (Bayer peptide), reference compound]”: on Glucagon Receptor [3], the “glucagon agonism, in words” value is “weak, but full glucagon agonism”. The “glucagon antagonism, in words” value at Glucagon Receptor [4] is on record as “no meaningful glucagon antagonism”. The “Glucagon IC50 (nM)” value on Glucagon Receptor [4] (Table 14) was “agonist”. Besides, the “Glucagon antagonism IC50 (nM, inhibit 0.8 nM glucagon)” value on Glucagon Receptor [4] (Table 19) is “weak agonist”. The “GLP-1 agonism, in words” value at GLP-1 Receptor was “very potent GLP-1 agonism”.

What is called IC50 is the concentration needed to halve the response being measured. With `CSCC[C@H](NC(=O)[C@H](CC(C)C)NC(=O)[C@H](Cc1c[nH]c2ccccc12)NC(=O)[C@H](CCC(N)=O)NC(=O)[C@@H](NC(=O)[C@H](Cc1ccccc1)NC(=O)[C@H](CC(=O)O)NC(=O)[C@H](CCC(N)=O)NC(=O)[C@H](C)NC(=O)[C@H](CCCNC(=N)N)NC(=O)[C@H](CCCNC(=N)N)NC(=O)[C@H](CO)NC(=O)[C@H](CC(=O)O)NC(=O)[C@H](CC(C)C)NC(=O)[C@H](Cc1ccc(O)cc1)NC(=O)[C@H](CCCCN)NC(=O)[C@H](CO)NC(=O)[C@H](Cc1ccc(O)cc1)NC(=O)[C@H](CCC(=O)O)NC(=O)[C@H](CO)NC(=O)[C@@H](NC(=O)[C@@H](O)Cc1ccccc1)[C@@H](C)O)C(C)C)C(=O)N[C@@H](CC(N)=O)C(=O)N[C@H](C(N)=O)[C@@H](C)O` [[PLA^6, E^9]Glucagon(aa6-29)-NH2] (H-[PhLac]TSEYSKYLDSRRAQDFVQWLMNT-NH2), the IC50 amounted to 12.3 ± 0.13 nM at Glucagon Receptor [5] and 23.7 ± 4.16 nM against Glucagon Receptor [4] (Glucagon antagonism IC50(nM, inhibit 0.5nM G), Table 25). Moreover, the “Solubility (%, pH 6-8)” value in data set [2] is recorded as 11%. Also, at GLP-1 Receptor (Table 25), the “GLP-1 agonism EC50(nM)” value is given as “No agonism”.

On to `CSCC[C@H](NC(=O)[C@H](CC(C)C)NC(=O)[C@H](Cc1c[nH]c2ccccc12)NC(=O)[C@H](CCC(N)=O)NC(=O)[C@@H](NC(=O)[C@H](Cc1ccccc1)NC(=O)[C@H](CC(=O)O)NC(=O)[C@H](CCC(N)=O)NC(=O)[C@H](C)NC(=O)[C@H](CCCNC(=N)N)NC(=O)[C@H](CCCNC(=N)N)NC(=O)[C@H](CO)NC(=O)[C@H](CC(=O)O)NC(=O)[C@H](CC(C)C)NC(=O)[C@H](Cc1ccc(O)cc1)NC(=O)[C@H](CCCCN)NC(=O)[C@H](CO)NC(=O)[C@H](Cc1ccc(O)cc1)NC(=O)[C@H](CC(=O)O)NC(=O)[C@H](CO)NC(=O)[C@@H](NC(=O)[C@@H](O)Cc1ccccc1)[C@@H](C)O)C(C)C)C(=O)N[C@@H](CC(=O)O)C(=O)N[C@H](C(N)=O)[C@@H](C)O` [[PLA^6, D^9, D^28] Glucagon(aa6-29)-NH2], for which the “Solubility (%, pH 6-8)” value in data set [2] was determined as 100%.

As for `CSCC[C@H](NC(=O)[C@H](CC(C)C)NC(=O)[C@H](Cc1c[nH]c2ccccc12)NC(=O)[C@H](CCC(N)=O)NC(=O)[C@@H](NC(=O)[C@H](Cc1ccccc1)NC(=O)[C@H](CC(=O)O)NC(=O)[C@H](CCC(N)=O)NC(=O)[C@H](C)NC(=O)[C@H](CCCNC(=N)N)NC(=O)[C@H](CCCNC(=N)N)NC(=O)[C@H](CO)NC(=O)[C@H](CC(=O)O)NC(=O)[C@H](CC(C)C)NC(=O)[C@H](Cc1ccc(O)cc1)NC(=O)[C@H](CCCCN)NC(=O)[C@H](CO)NC(=O)[C@H](Cc1ccc(O)cc1)NC(=O)[C@H](CC(=O)O)NC(=O)[C@H](CO)NC(=O)[C@@H](NC(=O)[C@@H](O)Cc1ccccc1)[C@@H](C)O)C(C)C)C(=O)N[C@@H](CC(N)=O)C(=O)N[C@H](C(=O)O)[C@@H](C)O` [[PLA^6, D^9]Glucagon(aa6-29)-COOH] (H-[PhLac]TSDYSKYLDSRRAQDFVQWLMNT-OH), the “Solubility (%, pH 6-8)” value in data set [2] is 96%.

By EC50 is commonly meant the concentration that produces a half-maximal response. Consider “Glucagon Cys^24 maleimido, PEG-3.4K-dimer [Glucagon C24 Dimer]”, for which, at Glucagon Receptor [3] (read-out: cAMP Induction Glucagon Receptor EC50, Table 3, pegylated analogs), the EC50 was determined as 0.1 ± 0.05 nM.
